# Measured values: patent US11098038B2, “Imidazole-based anticancer agents and derivatives thereof, and methods of making and using same” (The University of Toledo, priority 2017, dated 2021)
# Experiments:
# NCI-H23 = test: NCI 60 screen, NCI-H23; assay type: cell-based; settings: Homo sapiens, Non-Small Cell Lung
# Description: (§1) The compounds synthesized were tested at the National Cancer Institute (NCI) for anti-proliferative activity in the 60 human tumor cell line assay.
# M14 = test: NCI 60 screen, M14; assay type: cell-based; settings: Homo sapiens, Melanoma
# Description: as §1
# RPMI-8226 = test: NCI 60 screen, RPMI-8226; assay type: cell-based; settings: Homo sapiens, Leukemia
# Description: as §1
# KM12 = test: NCI 60 screen, KM12; assay type: cell-based; settings: Homo sapiens, Colon
# Description: as §1
# T-47D = test: NCI 60 screen, T-47D; assay type: cell-based; settings: Homo sapiens, T47D, Breast
# Description: as §1
# IGROV1 = test: NCI 60 screen, IGROV1; assay type: cell-based; settings: Homo sapiens, IGROV-1, Ovarian
# Description: as §1
# MALME-3M = test: NCI 60 screen, MALME-3M; assay type: cell-based; settings: Homo sapiens, Melanoma
# Description: as §1
# MDA-MB-231/ATCC = test: NCI 60 screen, MDA-MB-231/ATCC; assay type: cell-based; settings: Homo sapiens, Breast
# Description: as §1
# NCI-H226 = test: NCI 60 screen, NCI-H226; assay type: cell-based; settings: Homo sapiens, Non-Small Cell Lung
# Description: as §1
# NCI-460 = test: NCI 60 screen, NCI-460; assay type: cell-based; settings: Homo sapiens, Non-Small Cell Lung
# Description: as §1
# HOP-92 = test: NCI 60 screen, HOP-92; assay type: cell-based; settings: Homo sapiens, Non-Small Cell Lung
# Description: as §1
# TK-10 = test: NCI 60 screen, TK-10; assay type: cell-based; settings: Homo sapiens, Renal
# Description: as §1
# HT29 = test: NCI 60 screen, HT29; assay type: cell-based; settings: Homo sapiens, HT-29, Colon
# Description: as §1
# NCI-322M = test: NCI 60 screen, NCI-322M; assay type: cell-based; settings: Homo sapiens, Non-Small Cell Lung
# Description: as §1
# HS 578T = test: NCI 60 screen, HS 578T; assay type: cell-based; settings: Homo sapiens, Breast
# Description: as §1
# SF-268 = test: NCI 60 screen, SF-268; assay type: cell-based; settings: Homo sapiens, CNS
# Description: as §1
# SK-MEL-2 [1] = test: NCI 60 screen, SK-MEL-2 (second line); assay type: cell-based; settings: Homo sapiens; Melanoma, SK-MEL-2 (second of two lines so named, r38)
# Description: as §1
# SNB-19 = test: NCI 60 screen, SNB-19; assay type: cell-based; settings: Homo sapiens, CNS
# Description: as §1
# RXF393 = test: NCI 60 screen, RXF393; assay type: cell-based; settings: Homo sapiens, RXF 393, Renal
# Description: as §1
# DU-145 = test: NCI 60 screen, DU-145; assay type: cell-based; settings: Homo sapiens, Prostatic
# Description: as §1
# HCT15 = test: NCI 60 screen, HCT15; assay type: cell-based; settings: Homo sapiens, HCT-15, Colon
# Description: as §1
# K-562 = test: NCI 60 screen, K-562; assay type: cell-based; settings: Homo sapiens, K562, Leukemia
# Description: as §1
# UACC-62 = test: NCI 60 screen, UACC-62; assay type: cell-based; settings: Homo sapiens, Melanoma
# Description: as §1
# 786-0 = test: NCI 60 screen, 786-0; assay type: cell-based; settings: Homo sapiens, Renal
# Description: as §1
# SR = test: NCI 60 screen, SR; assay type: cell-based; settings: Homo sapiens, Leukemia
# Description: as §1
# EKVX = test: NCI 60 screen, EKVX; assay type: cell-based; settings: Homo sapiens, Non-Small Cell Lung
# Description: as §1
# SK-MEL-5 = test: NCI 60 screen, SK-MEL-5; assay type: cell-based; settings: Homo sapiens, Melanoma
# Description: as §1
# MDA-MB-468 = test: NCI 60 screen, MDA-MB-468; assay type: cell-based; settings: Homo sapiens, Breast
# Description: as §1
# LOX IMVI = test: NCI 60 screen, LOX IMVI; assay type: cell-based; settings: Homo sapiens, Melanoma
# Description: as §1
# UACC-257 = test: NCI 60 screen, UACC-257; assay type: cell-based; settings: Homo sapiens, Melanoma
# Description: as §1
# HCT-116 = test: NCI 60 screen, HCT-116; assay type: cell-based; settings: Homo sapiens, Colon
# Description: as §1
# OVCAR-5 = test: NCI 60 screen, OVCAR-5; assay type: cell-based; settings: Homo sapiens, Ovarian
# Description: as §1
# A498 = test: NCI 60 screen, A498; assay type: cell-based; settings: Homo sapiens, Renal
# Description: as §1
# ACHN = test: NCI 60 screen, ACHN; assay type: cell-based; settings: Homo sapiens, Renal
# Description: as §1
# SF-539 = test: NCI 60 screen, SF-539; assay type: cell-based; settings: Homo sapiens, CNS
# Description: as §1
# NCI/ADR-RES = test: NCI 60 screen, NCI/ADR-RES; assay type: cell-based; settings: Homo sapiens, Ovarian
# Description: as §1
# SN12C = test: NCI 60 screen, SN12C; assay type: cell-based; settings: Homo sapiens, Renal
# Description: as §1
# SK-OV-3 = test: NCI 60 screen, SK-OV-3; assay type: cell-based; settings: Homo sapiens, Ovarian
# Description: as §1
# BT-549 = test: NCI 60 screen, BT-549; assay type: cell-based; settings: Homo sapiens, Breast
# Description: as §1
# MCF7 = test: NCI 60 screen, MCF7; assay type: cell-based; settings: Homo sapiens, Breast
# Description: as §1
# COLO 205 = test: NCI 60 screen, COLO 205; assay type: cell-based; settings: Homo sapiens, Colon
# Description: as §1
# SW-620 = test: NCI 60 screen, SW-620; assay type: cell-based; settings: Homo sapiens, Colon
# Description: as §1
# PC-3 = test: NCI 60 screen, PC-3; assay type: cell-based; settings: Homo sapiens, Prostatic
# Description: as §1
# HOP-62 = test: NCI 60 screen, HOP-62; assay type: cell-based; settings: Homo sapiens, Non-Small Cell Lung
# Description: as §1
# U251 = test: NCI 60 screen, U251; assay type: cell-based; settings: Homo sapiens, U-251, CNS
# Description: as §1
# OVCAR-3 = test: NCI 60 screen, OVCAR-3; assay type: cell-based; settings: Homo sapiens, Ovarian
# Description: as §1
# NCI-H522 = test: NCI 60 screen, NCI-H522; assay type: cell-based; settings: Homo sapiens, Non-Small Cell Lung
# Description: as §1
# A549/ATCC = test: NCI 60 screen, A549/ATCC; assay type: cell-based; settings: Homo sapiens, Non-Small Cell Lung
# Description: as §1
# CCRF-CEM = test: NCI 60 screen, CCRF-CEM; assay type: cell-based; settings: Homo sapiens, Leukemia
# Description: as §1
# HCC-2998 = test: NCI 60 screen, HCC-2998; assay type: cell-based; settings: Homo sapiens, Colon
# Description: as §1
# UO-31 = test: NCI 60 screen, UO-31; assay type: cell-based; settings: Homo sapiens, Renal
# Description: as §1
# SK-MEL-2 [2] = test: NCI 60 screen, SK-MEL-2 (first line); assay type: cell-based; settings: Homo sapiens; Melanoma, SK-MEL-2 (first of two lines so named, r37)
# Description: as §1
# MDA-MB-435 = test: NCI 60 screen, MDA-MB-435; assay type: cell-based; settings: Homo sapiens, Melanoma
# Description: as §1
# SF-295 = test: NCI 60 screen, SF-295; assay type: cell-based; settings: Homo sapiens, CNS
# Description: as §1
# OVCAR-8 = test: NCI 60 screen, OVCAR-8; assay type: cell-based; settings: Homo sapiens, Ovarian
# Description: as §1
# HL-60(TB) = test: NCI 60 screen, HL-60(TB); assay type: cell-based; settings: Homo sapiens, Leukemia
# Description: as §1
# OVCAR-4 = test: NCI 60 screen, OVCAR-4; assay type: cell-based; settings: Homo sapiens, Ovarian
# Description: as §1
# MOLT-4 = test: NCI 60 screen, MOLT-4; assay type: cell-based; settings: Homo sapiens, Leukemia
# Description: as §1
# SNB-75 = test: NCI 60 screen, SNB-75; assay type: cell-based; settings: Homo sapiens, CNS
# Description: as §1
# CAKI-1 = test: NCI 60 screen, CAKI-1; assay type: cell-based; settings: Homo sapiens, Renal
# Description: as §1
smiles,measurement,setting,value
"O=C(Cc1ccc(/C=C/C(=O)c2ncc[nH]2)cc1)Nc1ccc(F)cc1 [Compound 22, (E)-2-(4-(3-(1H-imidazol-2-yl)-3-oxoprop-1-en-1-yl)phenyl)-N-(4-fluorophenyl)acetamide]",GI50,NCI-H23,1910 nM
same,GI50,M14,5980 nM
same,GI50,RPMI-8226,1270 nM
same,GI50,KM12,2100 nM
same,GI50,T-47D,3330 nM
same,GI50,IGROV1,2660 nM
same,GI50,MALME-3M,7860 nM
same,GI50,MDA-MB-231/ATCC,1830 nM
same,GI50,NCI-H226,9850 nM
same,GI50,NCI-460,1720 nM
same,GI50,HOP-92,9110 nM
same,GI50,TK-10,7890 nM
same,GI50,HT29,1150 nM
same,GI50,NCI-322M,3350 nM
same,GI50,HS 578T,2330 nM
same,GI50,SF-268,5100 nM
same,GI50,SK-MEL-2 [1],6260 nM
same,GI50,SNB-19,1580 nM
same,GI50,RXF393,3440 nM
same,GI50,DU-145,1190 nM
same,GI50,HCT15,1150 nM
same,GI50,K-562,1300 nM
same,GI50,UACC-62,5920 nM
same,GI50,786-0,1370 nM
same,GI50,SR,1110 nM
same,GI50,EKVX,7460 nM
same,GI50,SK-MEL-5,6060 nM
same,GI50,MDA-MB-468,970 nM
same,GI50,LOX IMVI,1070 nM
same,GI50,UACC-257,8670 nM
same,GI50,HCT-116,1890 nM
same,GI50,OVCAR-5,2600 nM
same,GI50,A498,8930 nM
same,GI50,ACHN,4820 nM
same,GI50,SF-539,840 nM
same,GI50,NCI/ADR-RES,7180 nM
same,GI50,SN12C,2930 nM
same,GI50,SK-OV-3,9380 nM
same,GI50,BT-549,2730 nM
same,GI50,MCF7,990 nM
same,GI50,COLO 205,4540 nM
same,GI50,SW-620,1430 nM
same,GI50,PC-3,2800 nM
same,GI50,HOP-62,2640 nM
same,GI50,U251,1200 nM
same,GI50,OVCAR-3,1700 nM
same,GI50,NCI-H522,3380 nM
same,GI50,A549/ATCC,6940 nM
same,GI50,CCRF-CEM,1680 nM
same,GI50,HCC-2998,5430 nM
same,GI50,UO-31,2640 nM
same,GI50,SK-MEL-2 [2],7470 nM
same,GI50,MDA-MB-435,4070 nM
same,GI50,SF-295,4740 nM
same,GI50,OVCAR-8,5080 nM
same,GI50,HL-60(TB),1660 nM
same,GI50,OVCAR-4,9140 nM
same,GI50,MOLT-4,5740 nM
same,GI50,SNB-75,1110 nM
"Cn1ccnc1C(=O)/C=C/c1ccc(CC(=O)Nc2ccc(Cl)cc2)cc1 [Compound 30, (E)-N-(4-chlorophenyl)-2-(4-(3-(1-methyl-1H-imidazol-2-yl)-3-oxoprop-1-en-1-yl)phenyl)acetamide]",GI50,NCI-H23,2040 nM
same,GI50,RPMI-8226,959 nM
same,GI50,KM12,1510 nM
same,GI50,T-47D,4300 nM
same,GI50,IGROV1,5270 nM
same,GI50,MALME-3M,14200 nM
same,GI50,MDA-MB-231/ATCC,5230 nM
same,GI50,NCI-H226,7420 nM
same,GI50,NCI-460,1580 nM
same,GI50,HOP-92,2500 nM
same,GI50,TK-10,12300 nM
same,GI50,HT29,889 nM
same,GI50,NCI-322M,3990 nM
same,GI50,HS 578T,15700 nM
same,GI50,SF-268,1240 nM
same,GI50,SK-MEL-2 [1],25000 nM
same,GI50,SNB-19,1770 nM
same,GI50,RXF393,2970 nM
same,GI50,DU-145,1420 nM
same,melting point,,250 °C
same,GI50,HCT15,999 nM
same,GI50,UACC-62,6500 nM
same,GI50,786-0,1600 nM
same,GI50,EKVX,1560 nM
same,GI50,SK-MEL-5,14400 nM
same,GI50,MDA-MB-468,1030 nM
same,GI50,LOX IMVI,1070 nM
same,GI50,UACC-257,25000 nM
same,GI50,HCT-116,1310 nM
same,GI50,OVCAR-5,9980 nM
same,GI50,A498,25000 nM
same,GI50,ACHN,15000 nM
same,GI50,SF-539,6400 nM
same,GI50,NCI/ADR-RES,2220 nM
same,GI50,SN12C,3040 nM
same,GI50,SK-OV-3,8790 nM
same,GI50,BT-549,3530 nM
same,GI50,MCF7,891 nM
same,GI50,COLO 205,9440 nM
same,GI50,SW-620,1250 nM
same,GI50,PC-3,1370 nM
same,GI50,HOP-62,2160 nM
same,GI50,U251,1100 nM
same,GI50,OVCAR-3,1030 nM
same,GI50,NCI-H522,4850 nM
same,GI50,A549/ATCC,1150 nM
same,GI50,CCRF-CEM,1460 nM
same,GI50,HCC-2998,3420 nM
same,GI50,UO-31,2270 nM
same,GI50,SK-MEL-2 [2],25000 nM
same,GI50,MDA-MB-435,9150 nM
same,GI50,SF-295,7390 nM
same,GI50,OVCAR-8,3490 nM
same,GI50,HL-60(TB),4810 nM
same,GI50,OVCAR-4,2180 nM
same,GI50,CAKI-1,13500 nM
same,GI50,MOLT-4,1740 nM
same,GI50,SNB-75,1900 nM
